Converted amounts (≈) assume the structure as drawn. Where two headings read alike, the source gives them in different places.
Experiments:
Escherichia coli = test: MIC, broth microdilution (Example 1); format: cell-based; conditions: Escherichia coli, read-out: MIC
How it was run: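 Frozen clinical or ATCC isolates are subcultured overnight on agar at 35 °C. Agents are serially diluted 2-fold in DMSO, then added to broth at 5% volume: HTM for Haemophilus, MH II for the rest, plus 2% lysed horse blood for pneumococci. Plates are incubated ~20 h at 35 °C and read visually.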

ESBL-producing E. coli = test: Susceptibility testing MIC/MBC, broth microdilution (Example 2); format: cell-based, Escherichia coli; conditions: for MBC / MIC: Escherichia coli
[1] = test system: AmpC-derepressed Enterobacter cloacae; test: microbe, parasite or virus in culture; format: cell-based; conditions: for MBC / MIC: Enterobacter cloacae
P. aeruginosa = test: Susceptibility testing MIC/MBC, broth microdilution (Example 2); format: cell-based, Pseudomonas aeruginosa; conditions: for MBC / MIC: Pseudomonas aeruginosa; for MBC: read-out: MBC; for MIC: read-out: MIC
[2] = test system: clinical Enterobacteriacae and P. aeruginosa isolates; test: Susceptibility testing (Example 2), summary over species; format: cell-based; conditions: selected clinical isolates, except for 4 E. cloacae
HA-MRSA [3] = test: Susceptibility testing MIC/MBC, broth microdilution (Example 3); format: cell-based, Staphylococcus aureus; conditions: for MIC: read-out: MIC; for MIC50: read-out: MIC50
Procedure: Two hundred clinical HA-MRSA isolates, harboring the SCCmecIV type, were evaluated for susceptibility testing. […] Four strains, including 1 hVISA and 1 VISA, characterized by population analysis profile and Macro Etest were selected for time-kill analysis.
Trypose soy agar (TSA; Difco, Detroit, Mich.) was used for colony counting.
Minimum inhibitory concentrations (MIC) and minimum bactericidal concentrations (MBC) were determined by broth microdilution for all antimicrobials, according to the Clinical and Laboratory Standards Institute (CLSI) guidelines (Clinical and Laboratory Standards Institute. 2006. Methods for Dilution Antimicrobial Susceptibility Tests for Bacteria That Grow Aerobically; Approved Standard. 7th ed. Wayne, Pa.: CLSI). MBC values were determined by plating of aliquots of 5 μL from clear wells onto TSA. All susceptibility testing were performed in duplicate.

HA-MRSA [4] = test: Time-kill curves at ¼ and ½ MIC (Example 3); format: cell-based, Staphylococcus aureus; conditions: drug alone at ½ MIC, the 2 vancomycin-susceptible MRSA, followed by regrowth
Procedure: Four randomly selected HA-MRSA isolates were evaluated in time-kill experiments, using a starting inoculum at ˜10^6 CFU/mL and antimicrobials at ¼ and ½ MIC. Regimens included ceftaroline, vancomycin and tobramycin alone or combination of tobramycin with ceftaroline or vancomycin. […] Additivity, antagonism and indifference were defined as <2 but >1 log10 kill, >1 log10 growth and ±1 log kill, respectively.
Differences between regimens were analyzed by T-test or ANOVA with Tukey's post hoc test. […] A P value <0.05 was considered significant.

[5] = E. cloacae (10) clinical isolates
[6] = P. aeruginosa (20) clinical isolates
[7] = HA-MRSA isolates of origin Blood
[8] = HA-MRSA isolates of origin Lung
[9] = HA-MRSA isolates of origin Skin
[10] = HA-MRSA isolates of origin Unknown
[11] = HA-MRSA isolates of origin Urine

Compound `CCO/N=C(\C(=O)N[C@@H]1C(=O)N2C(C(=O)[O-])=C(Sc3nc(-c4cc[n+](C)cc4)cs3)CS[C@H]12)c1nsc(N)n1` [Ceftaroline] has an MIC (Escherichia coli; E. coli 1587) of 0.12 µg/mL, an MIC (Escherichia coli; E. coli 2273 (ESBL)) of 2 µg/mL and an MBC range (ESBL-producing E. coli; E. coli (10) clinical isolates) of 4 to 1024 µg/mL. For the same compound, the MIC range (ESBL-producing E. coli; E. coli (10) clinical isolates) was 2 to 512 µg/mL, the MBC (ESBL-producing E. coli; E. coli isolate no. 5401, read-out: MBC) was 8 µg/mL (≈ 13.2 µM) and the MIC (ESBL-producing E. coli; E. coli isolate no. 5401, read-out: MIC) was 4 µg/mL (≈ 6.61 µM). For the same compound, the MBC (ESBL-producing E. coli; E. coli isolate no. 5411) was 128 µg/mL (≈ 212 µM), the MIC (ESBL-producing E. coli; E. coli isolate no. 5411) was 64 µg/mL (≈ 106 µM) and the MBC range [1, 5] was 0.125 to 1024 µg/mL. For the same compound, the MIC range [1, 5] was 0.125 to 512 µg/mL, the MBC ([1]; E. cloacae isolate no. 4073) was 512 µg/mL (≈ 847 µM) and the MIC ([1]; E. cloacae isolate no. 4073) was 256 µg/mL (≈ 423 µM). The MBC ([1]; E. cloacae isolate no. 5420) was 128 µg/mL (≈ 212 µM), the MIC ([1]; E. cloacae isolate no. 5420) was 64 µg/mL (≈ 106 µM) and the MBC range (P. aeruginosa; [6]) was 16 to 256 µg/mL. For the same compound, the MIC range (P. aeruginosa; [6]) was 8 to 256 µg/mL, the MBC (P. aeruginosa; P. aeruginosa isolate no. 796) was 32 µg/mL (≈ 52.9 µM) and the MIC (P. aeruginosa; P. aeruginosa isolate no. 796) was 16 µg/mL (≈ 26.5 µM). For the same compound, the MBC (P. aeruginosa; P. aeruginosa isolate no. 956) was 256 µg/mL (≈ 423 µM), the MIC (P. aeruginosa; P. aeruginosa isolate no. 956) was 128 µg/mL (≈ 212 µM) and the MBC (P. aeruginosa; P. aeruginosa isolate no. 1019) was 64 µg/mL (≈ 106 µM). It also gave an MIC (P. aeruginosa; P. aeruginosa isolate no. 1019) of 32 µg/mL (≈ 52.9 µM), an MBC (P. aeruginosa; P. aeruginosa isolate no. 1037) of 16 µg/mL (≈ 26.5 µM) and an MIC (P. aeruginosa; P. aeruginosa isolate no. 1037) of 8 µg/mL (≈ 13.2 µM). The MIC range [2] was 2 to 1024 µg/mL, the “% of Isolates with MBC 0.5 μg/mL” value (HA-MRSA [3]; 200 HA-MRSA isolates) was 22% and the “% of Isolates with MBC 1 μg/mL” value (HA-MRSA [3]; 200 HA-MRSA isolates) was 62.5%. The “% of Isolates with MBC 2 μg/mL” value (HA-MRSA [3]; 200 HA-MRSA isolates) was 15.5%, the “% of Isolates with MIC 0.25 μg/mL” value (HA-MRSA [3]; 200 HA-MRSA isolates) was 4% and the “% of Isolates with MIC 0.5 μg/mL” value (HA-MRSA [3]; 200 HA-MRSA isolates) was 35.5%. For the same compound, the “% of Isolates with MIC 1 μg/mL” value (HA-MRSA [3]; 200 HA-MRSA isolates) was 57%, the “% of Isolates with MIC 2 μg/mL” value (HA-MRSA [3]; 200 HA-MRSA isolates) was 1.5% and the “MBC range” value (HA-MRSA [3]; 200 HA-MRSA isolates) was 0.5 to 2 µg/mL. The “MIC range” value (HA-MRSA [3]; 200 HA-MRSA isolates) was 0.25 to 2 µg/mL, the “MBC range” value (HA-MRSA [3]; [7]) was 0.5 to 2 µg/mL and the “MIC range” value (HA-MRSA [3]; [7]) was 0.25 to 2 µg/mL. For the same compound, the “MBC range” value (HA-MRSA [3]; [8]) was 0.5 to 2 µg/mL, the “MIC range” value (HA-MRSA [3]; [8]) was 0.25 to 2 µg/mL and the “MBC range” value (HA-MRSA [3]; [9]) was 0.5 to 2 µg/mL. The “MIC range” value (HA-MRSA [3]; [9]) was 0.5 to 2 µg/mL, the “MBC range” value (HA-MRSA [3]; [10]) was 0.5 to 2 µg/mL and the “MIC range” value (HA-MRSA [3]; [10]) was 0.5 to 1 µg/mL. The “MBC range” value (HA-MRSA [3]; [11]) was 0.5 to 2 µg/mL, the “MIC range” value (HA-MRSA [3]; [11]) was 0.5 to 1 µg/mL and the MBC (HA-MRSA [3]; Staphylococcus aureus, MRSA / VISA, HA-MRSA isolate R2303 (VISA), read-out: MBC) was 0.25 µg/mL (≈ 0.413 µM). The MIC (HA-MRSA [3]; Staphylococcus aureus, MRSA / VISA, HA-MRSA isolate R2303 (VISA)) was 0.25 µg/mL (≈ 0.413 µM), the MIC50 (HA-MRSA [3]; Staphylococcus aureus, MRSA, 200 HA-MRSA isolates) was 1 µg/mL (≈ 1.65 µM) and the MBC (HA-MRSA [3]; Staphylococcus aureus, MRSA, HA-MRSA isolate R3804, read-out: MBC) was 0.25 µg/mL (≈ 0.413 µM). It also gave an MIC (HA-MRSA [3]; Staphylococcus aureus, MRSA, HA-MRSA isolate R3804) of 0.25 µg/mL (≈ 0.413 µM), an MBC (HA-MRSA [3]; Staphylococcus aureus, MRSA, HA-MRSA isolate R3875 (hVISA), read-out: MBC) of 1 µg/mL (≈ 1.65 µM) and an MIC (HA-MRSA [3]; Staphylococcus aureus, MRSA, HA-MRSA isolate R3875 (hVISA)) of 1 µg/mL (≈ 1.65 µM). For the same compound, the MBC (HA-MRSA [3]; Staphylococcus aureus, MRSA, HA-MRSA isolate R4039, read-out: MBC) was 0.5 µg/mL (≈ 0.827 µM), the MIC (HA-MRSA [3]; Staphylococcus aureus, MRSA, HA-MRSA isolate R4039) was 0.5 µg/mL (≈ 0.827 µM) and the MBC (HA-MRSA [3]; Staphylococcus aureus, MRSA, HA-MRSA isolates of origin Blood, read-out: MBC50) was 1 µg/mL (≈ 1.65 µM). The MIC50 (HA-MRSA [3]; Staphylococcus aureus, MRSA, HA-MRSA isolates of origin Blood) was 1 µg/mL (≈ 1.65 µM), the MBC (HA-MRSA [3]; Staphylococcus aureus, MRSA, HA-MRSA isolates of origin Lung, read-out: MBC50) was 1 µg/mL (≈ 1.65 µM) and the MIC50 (HA-MRSA [3]; Staphylococcus aureus, MRSA, HA-MRSA isolates of origin Lung) was 1 µg/mL (≈ 1.65 µM). For the same compound, the MBC (HA-MRSA [3]; Staphylococcus aureus, MRSA, HA-MRSA isolates of origin Skin, read-out: MBC50) was 1 µg/mL (≈ 1.65 µM), the MIC50 (HA-MRSA [3]; Staphylococcus aureus, MRSA, HA-MRSA isolates of origin Skin) was 1 µg/mL (≈ 1.65 µM) and the MBC (HA-MRSA [3]; Staphylococcus aureus, MRSA, HA-MRSA isolates of origin Unknown, read-out: MBC50) was 1 µg/mL (≈ 1.65 µM). The MIC50 (HA-MRSA [3]; Staphylococcus aureus, MRSA, HA-MRSA isolates of origin Unknown) was 1 µg/mL (≈ 1.65 µM), the MBC (HA-MRSA [3]; Staphylococcus aureus, MRSA, HA-MRSA isolates of origin Urine, read-out: MBC50) was 1 µg/mL (≈ 1.65 µM) and the MIC50 (HA-MRSA [3]; Staphylococcus aureus, MRSA, HA-MRSA isolates of origin Urine) was 0.5 µg/mL (≈ 0.827 µM). The MIC90 (HA-MRSA [3]; Staphylococcus aureus, 200 HA-MRSA isolates, read-out: MIC90) was 1 µg/mL (≈ 1.65 µM) and the “kill at 4 hours” value (HA-MRSA [4]) was 1.5 log10.
